We go through 9 molecules from article PMC5710999, “Statistical investigation of the full concentration range of fasted and fed simulated intestinal fluid on the equilibrium solubility of oral drugs” (European Journal of Pharmaceutical Sciences, 2018).

Details of data set [1]: method as in Zhou et al., 2017. Particulars: fed media design of experiment; ref Zhou et al., 2017; cited from earlier work.
A short description of data set [2]: Equilibrium solubility in full range (fasted to fed) design of experiment simulated intestinal media. Format: physicochemical. Particulars: for Comparison of combined fasted and fed solubility data with the full range DoE: Mann-Whitney test on equilibrium solubility distributions; for Comparison between all solubility data sets (fasted, fed, combined, full range) / Comparison of published fasted DoE solubility distribution with full range DoE / Comparison of published fed DoE solubility distribution with full range DoE: Mann-Whitney test; for Comparison between all solubility data sets (fasted, fed, combined, full range): Fig. 2b; for Variability of equilibrium solubility values: Fig. 1 and 2; for Effect of pH on equilibrium solubility: pH 5 to 7; for Comparison of published fasted DoE solubility distribution with full range DoE: fasted state; for Comparison of published fed DoE solubility distribution with full range DoE: fed state.
Source text: A quarter of the full factorial design of experiment with 7 factors (either a component concentration or a system parameter such as pH) and 2 levels (upper and lower limits) was constructed and analysed using Minitab®17.2.1. Minitab generated 32 different experiments by various combinations of the upper and lower limits of the 7 factors based on Table 1 (no centre point and no replicate). When designing and analysing the DoE assumptions were made. […] Only main effects and 2-way interactions are considered in the analysis and 3-way interactions or more were not considered. […] The single factors and factor interactions are confounded with 3 to 6-way interactions which were not included. There are three confounded 2-way factor interactions, sodium oleate and salt with buffer and monoglyceride, sodium oleate and buffer with salt and monoglyceride, sodium oleate and monoglyceride with salt and buffer. For these interactions if the result is significant then any conclusions must be drawn with caution as it might be the result of the four factors together or only one of the 2 way interactions. […] The main effect can be positive (+) or negative (−), but when it is involved in an interaction, the conclusion will be considered with the interactions (±).
The Kolmogorov normality test was used in Minitab® to assess the distribution of each data set, based on the result that all data sets have a non-normal distribution the Mann-Whitney test was applied to evaluate differences between two data sets.
A stream of nitrogen gas was used to remove the chloroform ensuring a dry film was produced. Water was added to reform the dried film, stirred to obtain a homogenous mixture, transferred to a volumetric flask (5 ml) and made to volume with water.
Salt and buffer stock solution: Sodium chloride (4.448 g) and monosodium phosphate (NaH2PO4) (2.395 g) were weighed into a 25 ml volumetric flask, dissolved and made up to the volume with water.
Sodium oleate: Sodium oleate (1.978 g) was weighed into a 25 ml volumetric flask, dissolved in water under gentle heat and made to final volume. Solution was then kept at 50 °C to aid solubilisation.
The concentration of each stock mixture has been designed to be 15 times greater than the upper limit concentration value required for the DoE, with the exception of sodium oleate where only a 5 times concentration was possible. The stock mixtures were combined to provide the 32 measurement solutions according to the DoE model.
This protocol has been previously validated to ensure equilibrium solubility is achieved after 24 h with no methodological interference ([Khadra et al., 2015], [Zhou et al., 2017]). A weight of powdered drug (10 mg) was added to a centrifuge tube (15 ml Corning®). The required volume of each stock solution (section above) and water was added to provide a final volume of 4 ml in every tube. pH was then adjusted to 5 or 7 using 0.1 M HCL or 0.1 M KOH. Tubes were shaken for 1 h at room temperature and then pH adjusted again as before. Tubes are then placed in an orbital shaker and incubated for 24 h at 37 °C and 240 rpm. Following incubation the tubes were checked for the presence of solid drug, then centrifuged (13,000 rpm, 5 min) and the supernatant (500 μl) was sampled to determine the solubilised drug concentration by HPLC.

On the set-up of data set [3]: method as in Khadra et al., 2015. Particulars: ref Khadra et al., 2015, cited from earlier work; for Statistical significance of DoE factor Bile Salt on equilibrium solubility, Fstd / Statistical significance of DoE factor Oleate on equilibrium solubility, Fstd / Statistical significance of DoE factor pH on equilibrium solubility, Fstd / Statistical significance of DoE factor Buffer on equilibrium solubility, Fstd / Statistical significance of DoE factor Lecithin on equilibrium solubility, Fstd / Statistical significance of DoE factor Salt on equilibrium solubility, Fstd: fasted media design of experiment; for Effect of buffer on equilibrium solubility in the fasted study: fasted DoE.

For data set [4] the following is noted: quoted without reference; cited from earlier work.
For data set [5] the following is noted: cited from earlier work; for pKa: quoted without reference.
Where [6] appears, read: full range DoE, standardised effect.
Where [7] appears, read: full range media design of experiment, p < 0.05.

“Also recorded” adds a separate entry of the source.

On to `C[C@@H](O[C@H]1OCCN(Cc2n[nH]c(=O)[nH]2)[C@H]1c1ccc(F)cc1)c1cc(C(F)(F)F)cc(C(F)(F)F)c1` [Aprepitant, aprepitant], for which, in data set [1], the “Statistical significance of DoE factor Bile Salt on equilibrium solubility, Fed” value is “S”; the “Statistical significance of DoE factor Buffer on equilibrium solubility, Fed” value is on record as “S”; the “Statistical significance of DoE factor Lecithin on equilibrium solubility, Fed” value is given as “S”; the “Statistical significance of DoE factor Oleate on equilibrium solubility, Fed” value was “S”. In data set [1], the “Statistical significance of DoE factor Salt on equilibrium solubility, Fed” value is “S” and the “Statistical significance of DoE factor pH on equilibrium solubility, Fed” value (from here on “Statistical significance of DoE factor pH … Fed”) is reported as “S”. Further, in data set [2], the “Comparison of combined fasted and fed solubility data with the full range DoE” value (“Comparison … with the full range DoE” below) is on record as “significantly different”; the “Comparison between all solubility data sets (fasted, fed, combined, full range)” value is recorded as “statistically significant difference between all data sets”. For the same molecule, the “Variability of equilibrium solubility values” (“Variability” below) in data set [2] (full range DoE) is listed as “more consistency”. Moreover, in data set [2] (setting [6]), the “Effect of sodium oleate on equilibrium solubility” value (“Effect of sodium oleate” for short) is “positively affected” and the “Effect of pH on equilibrium solubility” value is listed as “significant effect”. In addition, in data set [2] (setting [7]), the “Statistical significance of DoE factor Oleate on equilibrium solubility, Full” value is “S” and the “Statistical significance of DoE factor pH on equilibrium solubility, Full” value (“Statistical significance of DoE factor pH … Full” for short) was “S”. Further, in data set [3], the “Statistical significance of DoE factor Bile Salt on equilibrium solubility, Fstd” value was “S”; the “Statistical significance of DoE factor Oleate on equilibrium solubility, Fstd” value was “S”; the “Statistical significance of DoE factor pH on equilibrium solubility, Fstd” value (“Statistical significance of DoE factor pH … Fstd” for short) is on record as “S”. The “log P” value in data set [4] is recorded as 4.5.

Take `O=C1NC(=O)C(c2ccccc2)(c2ccccc2)N1` [Phenytoin, phenytoin]: in data set [1], the “Statistical significance of DoE factor Bile Salt on equilibrium solubility, Fed” value is given as “S”; the “Statistical significance of DoE factor Monoglyceride on equilibrium solubility, Fed” value is “S”; the “Statistical significance of DoE factor Oleate on equilibrium solubility, Fed” value is reported as “S”; the “Statistical significance of DoE factor pH … Fed” value is “S”. In addition, in data set [2], the “Comparison … with the full range DoE” value is “no significant difference”; the “Comparison of published fasted DoE solubility distribution with full range DoE” value is “statistically equivalent”. For the same molecule, the “Variability” value in data set [2] (full range DoE) is on record as “more consistency; also recorded: very consistent”. Also, in data set [2] (setting [7]), the “Statistical significance of DoE factor Oleate on equilibrium solubility, Full” value is “S” and the “Statistical significance of DoE factor pH … Full” value was “S”. In data set [3], the “Effect of buffer on equilibrium solubility in the fasted study” value is “positive effect”; the “Statistical significance of DoE factor Bile Salt on equilibrium solubility, Fstd” value is recorded as “S”; the “Statistical significance of DoE factor Buffer on equilibrium solubility, Fstd” value is given as “S”; the “Statistical significance of DoE factor Lecithin on equilibrium solubility, Fstd” value is reported as “S”. Also, in data set [3], the “Statistical significance of DoE factor Oleate on equilibrium solubility, Fstd” value was “S”; the “Statistical significance of DoE factor Salt on equilibrium solubility, Fstd” value was “S”; the “Statistical significance of DoE factor pH … Fstd” value is reported as “S”.

As to `COc1cc(C(=O)NS(=O)(=O)c2ccccc2C)ccc1Cc1cn(C)c2ccc(NC(=O)OC3CCCC3)cc12` [Zafirlukast, zafirlukast], in data set [1], the “Statistical significance of DoE factor Bile Salt on equilibrium solubility, Fed” value was “S” and the “Statistical significance of DoE factor pH … Fed” value is “S”. Besides, in data set [2], the “Comparison … with the full range DoE” value was “no significant difference”; the “Comparison of published fed DoE solubility distribution with full range DoE” value is recorded as “statistically equivalent”. Further, in data set [2] (setting [6]), the “Effect of bile salt on equilibrium solubility” value (shortened to “Effect of bile salt”) is “positively affects” and the “Effect of pH on equilibrium solubility” value was “significant effect”. Moreover, in data set [2] (setting [7]), the “Statistical significance of DoE factor Bile Salt on equilibrium solubility, Full” value was “S” and the “Statistical significance of DoE factor pH … Full” value is “S”. For the same molecule, the pKa in data set [5] is 4.3. In data set [3], the “Statistical significance of DoE factor Bile Salt on equilibrium solubility, Fstd” value is “S”; the “Statistical significance of DoE factor Lecithin on equilibrium solubility, Fstd” value is listed as “S”; the “Statistical significance of DoE factor Oleate on equilibrium solubility, Fstd” value is listed as “S”; the “Statistical significance of DoE factor pH … Fstd” value is “S”.

`CCOC(=O)C1=C(C)NC(C)=C(C(=O)OC)C1c1cccc(Cl)c1Cl` (stereo not shown) [Felodipine, felodipine]: in data set [1], the “Statistical significance of DoE factor Bile Salt on equilibrium solubility, Fed” value is “S”; the “Statistical significance of DoE factor Lecithin on equilibrium solubility, Fed” value is given as “S”; the “Statistical significance of DoE factor Oleate on equilibrium solubility, Fed” value is “S”; the “Statistical significance of DoE factor pH … Fed” value was “S”. In data set [2], the “Comparison … with the full range DoE” value is listed as “significantly different”; the “Comparison of published fed DoE solubility distribution with full range DoE” value is recorded as “statistically equivalent”. The “Variability” value in data set [2] (full range DoE) is given as “large variability”. In addition, in data set [2] (setting [6]), the “Effect of bile salt” value was “positive effect”, the “Effect of lecithin on equilibrium solubility” value is given as “affected”, the “Effect of sodium oleate” value was “positive effect” and the “Effect of pH on equilibrium solubility” value is recorded as “affected”. Further, in data set [2] (setting [7]), the “Statistical significance of DoE factor Bile Salt on equilibrium solubility, Full” value is “S”; the “Statistical significance of DoE factor Lecithin on equilibrium solubility, Full” value is “S”; the “Statistical significance of DoE factor Oleate on equilibrium solubility, Full” value is “S”; the “Statistical significance of DoE factor pH … Full” value is recorded as “S”. Besides, in data set [3], the “Statistical significance of DoE factor Bile Salt on equilibrium solubility, Fstd” value is given as “S”; the “Statistical significance of DoE factor Lecithin on equilibrium solubility, Fstd” value was “S”; the “Statistical significance of DoE factor Oleate on equilibrium solubility, Fstd” value is “S”; the “Statistical significance of DoE factor pH … Fstd” value is on record as “S”. In data set [4], the “log P” value is 3.8.

As for `CN1CC(=O)N2[C@H](c3ccc4c(c3)OCO4)c3[nH]c4ccccc4c3C[C@@H]2C1=O` [Tadalafil, tadalafil], in data set [1], the “Statistical significance of DoE factor Bile Salt on equilibrium solubility, Fed” value is recorded as “S” and the “Statistical significance of DoE factor Oleate on equilibrium solubility, Fed” value is on record as “S”. Besides, in data set [2], the “Comparison … with the full range DoE” value is reported as “significantly different”; the “Comparison between all solubility data sets (fasted, fed, combined, full range)” value was “statistically significant difference between all data sets”. In data set [2] (full range DoE), the “Variability” value is listed as “large variability”. Moreover, in data set [2] (setting [6]), the “Effect of bile salt” value is recorded as “positively affects”, the “Effect of sodium oleate” value is reported as “positively affected” and the “Effect of pH on equilibrium solubility” value is listed as “not”. Moreover, in data set [2] (setting [7]), the “Statistical significance of DoE factor Bile Salt on equilibrium solubility, Full” value is listed as “S” and the “Statistical significance of DoE factor Oleate on equilibrium solubility, Full” value is “S”. The pKa in data set [5] is 10. Further, in data set [3], the “Statistical significance of DoE factor Bile Salt on equilibrium solubility, Fstd” value was “S”; the “Statistical significance of DoE factor Buffer on equilibrium solubility, Fstd” value is given as “S”; the “Statistical significance of DoE factor Lecithin on equilibrium solubility, Fstd” value is “S”; the “Statistical significance of DoE factor Oleate on equilibrium solubility, Fstd” value is on record as “S”. In addition, in data set [3], the “Statistical significance of DoE factor Salt on equilibrium solubility, Fstd” value is given as “S” and the “Statistical significance of DoE factor pH … Fstd” value is listed as “S”.

In the case of `CC(C)(Sc1cc(C(C)(C)C)c(O)c(C(C)(C)C)c1)Sc1cc(C(C)(C)C)c(O)c(C(C)(C)C)c1` [Probucol, probucol], the “Comparison … with the full range DoE” value in data set [2] is recorded as “no significant difference”. The “Influence of any DoE factor on equilibrium solubility” value in data set [2] (full range DoE) was “not significantly influenced by any of the factors”. Also, the lipophilicity (log P) in data set [4] is 10.9.

As for `COc1ccc2c(c1)c(CC(=O)O)c(C)n2C(=O)c1ccc(Cl)cc1` [Indomethacin, indomethacin], in data set [1], the “Statistical significance of DoE factor Bile Salt on equilibrium solubility, Fed” value was “S”; the “Statistical significance of DoE factor Oleate on equilibrium solubility, Fed” value was “S”; the “Statistical significance of DoE factor pH … Fed” value is on record as “S”. Besides, the “Comparison … with the full range DoE” value in data set [2] is reported as “no significant difference”. The “Variability” value in data set [2] (full range DoE) is recorded as “larger variability”. For the same molecule, in data set [2] (setting [7]), the “Statistical significance of DoE factor Bile Salt on equilibrium solubility, Full” value is “S”; the “Statistical significance of DoE factor Oleate on equilibrium solubility, Full” value is “S”; the “Statistical significance of DoE factor pH … Full” value is recorded as “S”. In addition, in data set [3], the “Effect of buffer on equilibrium solubility in the fasted study” value is given as “negative effect”; the “Statistical significance of DoE factor Bile Salt on equilibrium solubility, Fstd” value is listed as “S”; the “Statistical significance of DoE factor Buffer on equilibrium solubility, Fstd” value is “S”; the “Statistical significance of DoE factor Oleate on equilibrium solubility, Fstd” value was “S”. For the same molecule, the “Statistical significance of DoE factor pH … Fstd” value in data set [3] is “S”.

As for `COc1ccccc1OCCNCC(O)COc1cccc2[nH]c3ccccc3c12` (stereo not shown) [Carvedilol, carvedilol], in data set [1], the “Statistical significance of DoE factor Bile Salt on equilibrium solubility, Fed” value is listed as “S”; the “Statistical significance of DoE factor Buffer on equilibrium solubility, Fed” value is reported as “S”; the “Statistical significance of DoE factor Monoglyceride on equilibrium solubility, Fed” value is listed as “S”; the “Statistical significance of DoE factor Oleate on equilibrium solubility, Fed” value is “S”. Also, the “Statistical significance of DoE factor pH … Fed” value in data set [1] is on record as “S”. Also, in data set [2], the “Comparison … with the full range DoE” value was “no significant difference”; the “Comparison of published fasted DoE solubility distribution with full range DoE” value is on record as “statistically equivalent”. In data set [2] (setting [6]), the “Effect of sodium oleate” value is reported as “positively affected” and the “Effect of pH on equilibrium solubility” value was “significant effect”. In data set [2] (setting [7]), the “Statistical significance of DoE factor Oleate on equilibrium solubility, Full” value was “S” and the “Statistical significance of DoE factor pH … Full” value is recorded as “S”. Further, in data set [3], the “Statistical significance of DoE factor Bile Salt on equilibrium solubility, Fstd” value was “S”; the “Statistical significance of DoE factor Lecithin on equilibrium solubility, Fstd” value is given as “S”; the “Statistical significance of DoE factor Oleate on equilibrium solubility, Fstd” value is “S”; the “Statistical significance of DoE factor pH … Fstd” value is reported as “S”.

With `CCCCCCCC/C=C\CCCCCCCC(=O)O` [oleate, Sodium oleate], the “pKa of acidic media factors” value in data set [5] (ref Holm et al., 2013) is given as “approximately 5”.
